Columns and labels:
SARS-CoV-2 Mpro = target: T1, SARS-CoV-2 Mpro (Severe acute respiratory syndrome coronavirus 2, UniProt P0DTD1); assay: In vitro anti-novel coronavirus Mpro protease activity; format: biochemical; conditions: 25 nM Mpro protein, 25 μM substrate
T1 construct: Mpro protein was added to the 384-well assay plate; purchased WuXi AppTec
Method: (§1) The compound was dissolved in DMSO, and diluted in a 3-fold gradient with Echo655 according to the concentration requirements for the assay to 10 concentration points. Duplicate assays were set at each concentration. The diluted solution was added to a 384-well plate. Mpro protein and substrate were diluted with assay buffer (100 mM NaCl, 20 mM Tris-HCl, 1 mM EDTA). Mpro protein was added to the 384-well assay plate, and incubated with the compound for 30 min at room temperature. Then the substrate was added. The assay concentration of Mpro protein was 25 nM, and the assay concentration of substrate was 25 μM. After incubating for 60 minutes in a 30° C. constant temperature incubator, the fluorescence signal value of Ex/Em=340 nm/490 nm was detected by microplate reader. At the same time, the background well containing the substrate and compound but not containing Mpro protein was detected as control.
as §1, with “EDTA), and” for “EDTA).”, “plate,” for “plate, and”
2) Log (agonist) vs. response—variable slope nonlinear fitting analysis was carried out on the inhibition rate data (inhibition rate %) of the compound by using GraphPad Prism software, and the IC50 value of the compound was obtained.

SARS-CoV-2 replicon = assay: microbe, parasite or virus in culture; format: cell-based; conditions: Severe acute respiratory syndrome coronavirus 2, Huh-7, 24 h

SMILES	IC50 (SARS-CoV-2 Mpro)	EC50 (SARS-CoV-2 replicon)
Cn1cnc(Cc2c(F)n(Cc3cc(F)c(F)cc3F)c(Nc3cc4cn(C)nc4cc3Cl)nc2=O)n1 [Compound 8]	58 nM	58 nM
Cn1cnc(Cc2cn(Cc3cc(F)c(F)cc3F)c(Nc3cc4cn(C)nc4cc3Cl)nc2=O)n1 [Compound 4]	25 nM	66 nM
Cn1cnc(Cc2cn(Cc3cc(F)c(F)c(F)c3F)c(Nc3cc4cn(C)nc4cc3Cl)nc2=O)n1 [Compound 7]	62 nM	82 nM
